Here are results for six compounds from ChEMBL document CHEMBL1177776, “Novel coumarin derivatives as potential antidyslipidemic agents” (2010).

Common to all, as to type: functional
Assay [1] in a line: Antioxidant activity assessed as inhibition non-enzymatic reactants generated hydroxyl radical production at 100 ug/ml by spectrophotometry.
Assay [2] is described as follows: Antioxidant activity assessed as inhibition lipid peroxidation at 200 ug/ml by spectrophotometry.
The nature of assay [3]: Antioxidant activity assessed as inhibition non-enzymatic reactants generated hydroxyl radical production at 200 ug/ml by spectrophotometry.
In assay [4] the test system is Rattus norvegicus. As to the kind of experiment: Antidyslipidemic activity against triton-induced hyperlipidemia in Charles Foster rat assessed as reduction in total cholesterol level at 100 mg/kg, po after 18 hrs by spectrophotometry relative to control. On the set-up: scale not given: the % may be the effect or the level left.
Assay [5] relates to Rattus norvegicus. As to the kind of experiment: Antidyslipidemic activity against triton-induced hyperlipidemia in Charles Foster rat assessed as reduction in phospholipid level at 100 mg/kg, po after 18 hrs by spectrophotometry relative to control. Details: scale not given: the % may be the effect or the level left.
In assay [6] the test system is Rattus norvegicus. Put plainly: Antidyslipidemic activity against triton-induced hyperlipidemia in Charles Foster rat assessed as reduction in triglyceride level at 100 mg/kg, po after 18 hrs by spectrophotometry relative to control. On the set-up: scale not given: the % may be the effect or the level left.
Assay [7] in a line: Antioxidant activity assessed as inhibition non-enzymatic reactants generated superoxide anion at 200 ug/ml by spectrophotometry.
Assay [8] in a line: Antioxidant activity assessed as inhibition non-enzymatic reactants generated superoxide anion at 20 ug/ml by spectrophotometry.

On to `OC[C@@H](O)[C@@H](O)[C@H](O)[C@H](O)CO`, for which the inhibition (in general, the relative decrease from the control value, in per cent) in assay [1] turned out to be 52%.
Still for that read-out and setting: then `Cc1c(C)c2c(c(C)c1O)CC[C@@](C)(CCC[C@H](C)CCC[C@H](C)CCCC(C)C)O2`, with 47%.
Consider `Cc1cc2cc(Cl)c(=O)oc2c2ccccc12`, for which the figures for the inhibition in assay [2], in assay [3] and in assay [7] were 38%, 49% and 32%, respectively. Also, the Activity in the assay with Rattus norvegicus [4] is given as 27%; with Rattus norvegicus [5], 26%; with Rattus norvegicus [6], 26%.
In the case of `Oc1ncnc2[nH]ncc12`, in assay [8], the inhibition came out at 80%.
With `Cc1ccc(C)c(OCCCC(C)(C)C(=O)O)c1` [GEMFIBROZIL], the Activity was determined as 34% in the assay with Rattus norvegicus [4], 38% in the assay with Rattus norvegicus [5] and 35% in the assay on Rattus norvegicus [6].
Take `Cc1cc(C=O)c(O)c2ccccc12`: the inhibition stood at 41% in assay [2], 41% in assay [3] and 27% in assay [7]. Also, the Activity in the assay with Rattus norvegicus [4] is given as 24%; in the assay on Rattus norvegicus [5] it was 25%; in the assay on Rattus norvegicus [6] it was 23%.
